From paper PMC6588349 (eLife, 2019)
“Also recorded” adds a separate entry of the source. Where two headings read alike, the source gives them in different places.

What was measured:
[1] = biological target: T1, SNAP-mGluR2-TMD (Rattus norvegicus, UniProt P31421); experiment: Inter-TMD FRET assay in living HEK 293T cells; assay type: cell-based; settings: for EC50: normalized to saturating LY48; for inter-TMD FRET response to drug alone: drug applied alone, XA up to 50 µM
T1 construct: mGluR2-TMD (rat) starts at Q558; expressed in transfected cells; host or cells: HEK 293T
T1 sequence (P31421 558-872 limits assumed): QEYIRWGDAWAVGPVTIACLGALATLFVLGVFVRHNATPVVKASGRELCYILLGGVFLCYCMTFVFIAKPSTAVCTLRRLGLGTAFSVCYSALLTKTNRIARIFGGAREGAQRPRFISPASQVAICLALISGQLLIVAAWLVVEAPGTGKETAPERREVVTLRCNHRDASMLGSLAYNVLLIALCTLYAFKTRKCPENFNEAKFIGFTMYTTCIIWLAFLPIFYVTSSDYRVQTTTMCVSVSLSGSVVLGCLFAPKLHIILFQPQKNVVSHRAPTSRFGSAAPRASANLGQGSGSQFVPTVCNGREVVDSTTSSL
Text: We therefore sought to develop a FRET sensor that reports on activation-associated motions driven by allosteric drugs and hypothesized that an N-terminal fluorophore on the isolated TMD should report on any inter-TMD rearrangement while allowing the receptor to maintain G-protein coupling (Figure 3A). […] To test if LBD-independent inter-TMD rearrangement is a feature of other mGluRs, we asked if donor and acceptor conjugation to SNAP-mGluR5-TMD would allow for the detection a FRET response to a PAM.
Cells were cultured in DMEM with 5% FBS on poly-L-lysine-coated glass coverslips. DNA plasmids were transfected into cells using Lipofectamine 3000 (Thermo Fisher). […] For single-molecule pulldown (SiMPull) experiments, cells were transfected with 0.7 μg DNA of HA and SNAP-tagged receptor constructs, unless otherwise noted. For FRET experiments, cells were transfected with either SNAP-tagged constructs at 0.5–0.7 μg of DNA/well or SNAP and CLIP-tagged constructs at a ratio of 1:2 with 0.3 μg of SNAP DNA/well.
(§1) Fluorophores were diluted in EX solution, which was also used to wash coverslips following labeling and prior to mounting on the microscope. After labeling, cells were mounted on an inverted microscope (Olympus IX73) and imaged with a 60x objective. […] Clusters of cells were analyzed together using ImageJ and FRET was calculated as FRET=(IAcceptor)/(IDonor +IAcceptor) where I is fluorescence intensity. No corrections were made for bleed-through between channels or the contribution of donor-donor or acceptor-acceptor dimers as analysis was limited to relative FRET changes between drug treatments rather than absolute FRET values. […] FRET changes calculated for dose–response curves were normalized to the response to saturating […] applied within the same recording and dose–response curves were obtained from multiple cell clusters and averaged from at least three separate experiments. Dose–response curves were fit using Prism (Graphpad). All drugs were purchased from Tocris, prepared in EX solution, and delivered with a gravity-driven perfusion system. For kinetics measurements a pressurized perfusion system (Automate Scientific) was used to produce a flow rate of 0.5 mL/s. Kinetic analysis was performed in Microsoft Excel. The time between 10% and 90% FRET increase or decrease was determined manually. For photo-bleaching/donor-recovery experiments, images were taken in donor and acceptor channels at baseline and again followed by a 1 min exposure to 640 nm laser illumination at maximum intensity. All experiments were performed at room temperature. All data were produced from at least two separate transfections for each condition.

[2] = biological target: T2, SNAP-mGluR2 (full-length) (Rattus norvegicus, UniProt P31421); experiment: Inter-LBD FRET assay with full-length SNAP-mGluR2; assay type: cell-based; settings: saturating concentrations; for direct effect on inter-LBD FRET (no orthosteric agonist for modulators): drug applied alone; for effect on inter-LBD FRET response to DCG-IV: agonist DCG-IV
T2 construct: HEK 293T cells expressing full-length mGluR2; expressed in transfected cells; host or cells: HEK 293T
T2 sequence (P31421 19-872): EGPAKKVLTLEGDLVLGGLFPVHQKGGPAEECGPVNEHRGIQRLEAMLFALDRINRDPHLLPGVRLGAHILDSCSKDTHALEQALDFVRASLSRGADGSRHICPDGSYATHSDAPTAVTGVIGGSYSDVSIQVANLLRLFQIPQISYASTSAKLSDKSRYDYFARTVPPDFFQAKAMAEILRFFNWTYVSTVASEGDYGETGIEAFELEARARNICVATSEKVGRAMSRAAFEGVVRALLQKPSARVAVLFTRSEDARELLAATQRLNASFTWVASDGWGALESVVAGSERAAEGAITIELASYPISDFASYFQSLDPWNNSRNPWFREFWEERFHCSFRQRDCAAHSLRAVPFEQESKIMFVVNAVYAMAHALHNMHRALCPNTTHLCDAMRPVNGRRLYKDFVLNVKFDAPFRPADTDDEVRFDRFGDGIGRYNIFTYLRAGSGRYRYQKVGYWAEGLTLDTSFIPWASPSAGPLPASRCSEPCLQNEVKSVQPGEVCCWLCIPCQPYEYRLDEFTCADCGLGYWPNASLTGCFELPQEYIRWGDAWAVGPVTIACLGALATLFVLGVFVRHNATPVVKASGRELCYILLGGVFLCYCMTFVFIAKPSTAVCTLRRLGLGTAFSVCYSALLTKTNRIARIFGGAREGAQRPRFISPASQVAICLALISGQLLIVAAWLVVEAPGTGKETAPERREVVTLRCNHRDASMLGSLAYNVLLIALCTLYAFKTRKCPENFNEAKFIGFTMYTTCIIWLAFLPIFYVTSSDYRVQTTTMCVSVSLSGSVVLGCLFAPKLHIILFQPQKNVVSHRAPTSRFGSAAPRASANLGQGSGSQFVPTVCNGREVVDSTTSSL
Text: We next sought to further probe the variation in PAM-induced inter-TMD FRET changes. […] We used an inter-LBD FRET assay to assess the relative strength of allosteric modulation by different mGluR2 PAMs. Agonists induce a decrease in FRET between fluorophore-conjugated N-terminal SNAP- and CLIP-tags (Figure 4E). […] We tested this effect for all PAMs by applying a saturating concentration of DCG-IV followed by co-application of a saturating concentration of each PAM, which produced further FRET decreases (Figure 4F,G).
as §1

[3] = biological target: T1, SNAP-mGluR2-TMD; experiment: Single-molecule pulldown (SiMPull) photobleaching step counting, SNAP-mGluR2-TMD; settings: 10 µM LY48, 1 µM BINA, 10 µM Ro 64, 1 µM MNI 137
Text: Photobleaching step analysis of individual complexes allows for precise determination of receptor stoichiometry and, unlike FRET or BRET-based methods, this assay is not sensitive to conformation or relative fluorophore orientation. […] However, this work relied on GFP-tagged receptors which leads to a lysate that contains both surface-targeted and intracellular receptors, potentially including immature or partially degraded protein that can confound analysis.
To restrict our analysis to surface-targeted receptors, we expressed N-terminally SNAP-tagged receptor variants and labeled them with membrane-impermeable fluorophores.
To test this, we incubated SNAP-mGluR2-TMD expressing cells and lysates with PAMs or NAMs during the SiMPull experiment.
Briefly, to prevent non-specific sticking of proteins, flow chambers were prepared with mPEG-passivated glass slides and coverslips doped with ~1% biotinylated mPEG, as previously described. Prior to each experiment, chambers were incubated with 0.2 mg/mL NeutrAvidin (ThermoFisher) for 2 min followed by 10 nM of a biotinylated anti-HA antibody (abcam ab26228) for 20–30 min. After each conjugation step, the chambers were washed with T50 buffer (50 mM NaCl, 10 mM Tris, pH 7.5).
After labeling, cells were dissociated from coverslips by incubating with Ca^2+-free PBS for 20 min followed by gentle pipetting. […] Following 1 hr of lysis at 4°C, cells were centrifuged at 16,000 g for 20 min before the supernatant was collected and maintained on ice. The cell lysate was diluted in a 0.1% detergent dilution buffer to obtain sparse immobilization of labeled protein on the passivated slide. After obtaining an optimal density of immobilized protein, the flow chamber was washed with dilution buffer to remove unbound protein. For SiMPull experiments with PAMs and NAMs, drugs were added to cells during the dissociation step (after dye labeling), and maintained throughout the cell lysis and entire experiment.
Single molecules were imaged with a 100x objective on an inverted microscope (Olympus IX73) in total internal reflection fluorescence (TIRF) mode. Images were taken with an scMOS camera (Hamamatsu ORCA-Flash4v3.0) at 20 Hz with 50 ms exposures. […] Multiple independent experiments were performed for each condition. […] A SNAP-tag labeling efficiency of ~80% was used to calculate the proportion of dimers and monomers. Occasional co-localization of two proteins within a diffraction limited spot along with antibody and NeutrAvidin bivalency both make a small contribution to >1 step photobleaching, leading to a background % two-step bleaching level of ~5–10%. All data were produced from at least two separate transfections/protein preparations for each condition.

[4] = SNAP-mGluR2-TMD labeled with donor and acceptor, mean ± s.e.m., read-out: inter-TMD FRET increase EC50

COc1ccccc1Oc1ccc(N(Cc2cccnc2)S(=O)(=O)CC(F)(F)F)cc1 [LY48]
EC50 ([1]; SNAP- and CLIP-mGluR2-TMD co-expressed, read-out: inter-TMD FRET increase EC50, co-expression of SNAP- and CLIP-mGluR2-TMD): 900 ± 100 nM
EC50 [1, 4]: 1200 ± 100 nM
EC50 ([1]; co-expression of dominant negative Gα protein, read-out: inter-TMD FRET increase EC50 with dominant negative G protein): 600 ± 40 nM
inter-TMD FRET response to drug alone [1]: readily detectable FRET increase
inter-TMD FRET response onset ([1]; saturating concentrations): 10 to 40 s
inter-TMD FRET response reversal ([1]; saturating concentrations): < 2 min
direct effect on inter-LBD FRET (no orthosteric agonist for modulators) [2]: no effect on FRET level; also recorded: unable to directly induce LBD closure
higher order complexes with >3 bleaching steps in presence of drug [3]: < 10%
two-step photobleaching events of SNAP-mGluR2-TMD in presence of drug [3]: 40–45%

Clc1cccc(Cl)c1/C(=C/n1cncn1)OC1CCCCCC1 [Ro 64]
inter-TMD FRET OFF kinetics [1]: very slow OFF kinetics
EC50 [1, 4]: 2100 ± 200 nM
inter-TMD FRET response to drug alone [1]: robust, dose-dependent inter-TMD FRET increases
direct effect on inter-LBD FRET (no orthosteric agonist for modulators) [2]: did not alter the basal inter-LBD FRET
effect on inter-LBD FRET response to DCG-IV [2]: partial antagonism
higher order complexes with >3 bleaching steps in presence of drug [3]: < 10%
two-step photobleaching events of SNAP-mGluR2-TMD in presence of drug [3]: 40–45%

N#Cc1cc(C2=Nc3ccc(Br)cc3NC(=O)C2)ccn1 [MNI 137]
effect on LY48-induced inter-TMD FRET response ([1]; NAM versus LY48): blocked
effect on BINA-induced inter-TMD FRET increase ([1]; applied after BINA): reversed the BINA-induced FRET increase back to baseline
effect on Ro 64-induced inter-TMD FRET increase ([1]; applied after Ro 64): partially reverse
inter-TMD FRET response to drug alone [1]: minimal FRET changes
direct effect on inter-LBD FRET (no orthosteric agonist for modulators) [2]: did not alter the basal inter-LBD FRET
effect on inter-LBD FRET response to DCG-IV [2]: partial antagonism
higher order complexes with >3 bleaching steps in presence of drug [3]: < 10%
two-step photobleaching events of SNAP-mGluR2-TMD in presence of drug [3]: 40–45%
